Assay results taken from patent US6979686B1, “Substituted pyrazoles as p38 kinase inhibitors” (Pharmacia Corporation, priority 2001, dated 2005).
Like-named read-outs stand apart in the source and are kept apart here. One block for each molecule: values may come before it.

Key:
[1] = target: T1, human p38 kinase alpha (Homo sapiens, UniProt Q16539); assay: p38 kinase in vitro assay, phosphorylation of biotinylated PHAS-I with 32P-ATP; format: biochemical; conditions: for IC50: read-out: P38 alpha kinase IC50
T1 construct: GST (N, cleaved yes); made in house; host or cells: E. coli DH10B

[2] = tested on: TNF-α, U937 human histiocytic lymphoma cell line; assay: LPS stimulation of TNF production by U937 cells; format: cell-based; conditions: for inhibition at 1 µM: U-937, @ 1.0 uM; for U937 Cell IC50, uM or % inhib @ conc. (uM): % inhib / U937 Cell % inhib @ conc.: @ 10.0 uM; for U937 Cell % inhib @ conc. (uM): @ 1.0 uM
Method in brief: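 U937 cells differentiated 24 h with 20 ng/ml PMA, rested 24-48 h, used at 2 million cells/ml. Compounds in 0.1% DMSO final; LPS (E. coli, 100 ng/ml final) stimulation for 4 h at 37° C. Released TNF-α measured by ELISA; IC50 (μM).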

[3] = in vitro P38-alpha kinase inhibition
[4] = Homo sapiens, TNF production, U937 cells stimulated with LPS, read-out: U937 Cell % inhib @ conc.
[5] = TNF production, U937 cells stimulated with LPS
[6] = TNF production, LPS-stimulated U937 cells
[7] = Homo sapiens, TNF production, LPS-stimulated U937 cells, read-out: U937 Cell % inhib @ conc.
[8] = Homo sapiens, U-937, TNF production, human U937 cells stimulated with LPS, read-out: U937 Cell IC50
[9] = TNF production in human U937 cells stimulated with LPS

T1 sequence (Q16539 whole entry): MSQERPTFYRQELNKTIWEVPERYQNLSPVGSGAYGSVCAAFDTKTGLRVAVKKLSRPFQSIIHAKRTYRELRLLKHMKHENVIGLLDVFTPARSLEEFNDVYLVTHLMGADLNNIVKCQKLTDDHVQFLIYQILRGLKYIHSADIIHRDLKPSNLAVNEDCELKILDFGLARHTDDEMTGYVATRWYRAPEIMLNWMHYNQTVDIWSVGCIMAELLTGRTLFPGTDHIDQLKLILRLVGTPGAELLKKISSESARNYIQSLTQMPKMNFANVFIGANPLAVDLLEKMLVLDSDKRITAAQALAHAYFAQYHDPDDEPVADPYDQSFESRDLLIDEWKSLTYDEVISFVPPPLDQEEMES

Compound: COC(=O)C(C)NC(=O)Cn1nc(-c2ccc(F)cc2)c(-c2ccncc2)c1C (centres unmarked) [Example B-2363]
P38 alpha kinase % inhib @ conc. ([1]; @ 10.0 uM): 44.0% @
U937 Cell % inhib @ conc. [2, 6]: 1.0% @

Compound: Cc1c(-c2ccncc2)c(-c2ccc(F)cc2)nn1CC(=O)N1CCCN(C)CC1 [Example B-2382]
P38 alpha kinase % inhib @ conc. ([1]; @ 10.0 uM): 51.0% @
U937 Cell % inhib @ conc. [2, 6]: 24.0% @

Compound: O=S(=O)(c1cccc(Cl)c1Cl)N1CCC(c2[nH]nc(-c3ccc(F)cc3)c2-c2ccncc2)CC1 [Example B-1448]
IC50 ([1]; in vitro P38-alpha kinase): 1430 nM
inhibition at 1 µM [2, 7]: 22%

Compound: Cc1c(-c2ccncc2)c(-c2ccc(F)cc2)nn1CC(=O)N(C)CC(=O)N(C)C [Example B-2412]
P38 alpha kinase IC50, uM or % inhib @ conc. (uM): % inhib ([1]; @ 10.0 uM): 40.0% @
U937 Cell IC50, uM or % inhib @ conc. (uM): % inhib [2, 5]: 31.0% @

Compound: O=C(NC(Cc1ccccc1)c1[nH]nc(-c2ccc(F)cc2)c1-c1ccncc1)c1ccno1 (centres unmarked) [Example B-0808]
IC50 [1, 3]: 3090 nM
IC50 [2, 8]: > 1 µM

Compound: Cc1c(-c2ccncc2)c(-c2ccc(F)cc2)nn1CC(=O)NC(C)Cc1c[nH]c2ccccc12 (centres unmarked) [Example B-2328]
P38 alpha kinase % inhib @ conc. ([1]; @ 10.0 uM): 65.0% @
U937 Cell % inhib @ conc. [2, 6]: 28.0% @

Compound: O=C(NCc1[nH]nc(-c2ccc(F)cc2)c1-c1ccncc1)[C@@H]1C[C@@H]1c1ccccc1 [Example B-0002]
inhibition at 1 µM ([1]; @ 1.0 uM, read-out: P38 alpha kinase % inhib @ conc.): 71%
inhibition at 10 µM ([2]; Homo sapiens, U-937, @ 10.0 uM, TNF production, U937 cells stimulated with LPS, read-out: U937 Cell % inhib @ conc.): 28%

Compound: O=S(=O)(NCCCc1[nH]nc(-c2ccc(F)cc2)c1-c1ccncc1)c1ccccc1Br [Example B-1259]
IC50 ([1]; in vitro P38-alpha kinase): < 100 nM
IC50 [2, 8]: 0.48 µM

Compound: Cc1c(-c2ccncc2)c(-c2ccc(F)cc2)nn1CC(=O)NCCc1cccs1 [Example B-2279]
IC50 ([1]; in vitro P38-alpha kinase): 320 nM
U937 Cell % inhib @ conc. [2, 6]: 36.0% @

Compound: Cc1cccc(C(=O)NC(C)c2[nH]nc(-c3ccc(F)cc3)c2-c2ccncc2)c1 (centres unmarked) [Example B-0692]
IC50 [1, 3]: 380 nM
U937 Cell % inhib @ conc. (uM) [2, 9]: 29.0% @

Compound: COc1cccc(CC(=O)N2CCC(c3[nH]nc(-c4ccc(F)cc4)c3-c3ccncc3)CC2)c1 [Example B-1370]
IC50 ([1]; in vitro P38-alpha kinase): < 100 nM
IC50 [2, 8]: 0.77 µM

Compound: Cc1c(-c2ccncc2)c(-c2ccc(F)cc2)nn1CC(=O)N(C)CCCC1c2ccccc2CCc2ccccc21 [Example B-2387]
P38 alpha kinase IC50, uM or % inhib @ conc. (uM): % inhib ([1]; @ 100.0 uM): 50.0% @
IC50 ([2]; TNF production, U937 cells stimulated with LPS, read-out: U937 Cell IC50, uM or % inhib @ conc. (uM): IC50): > 10 µM

The next lines start with results.

IC50 [1, 3]: 380 nM
Compound: CN(C)c1cccc2c(S(=O)(=O)NCCc3[nH]nc(-c4ccc(F)cc4)c3-c3ccncc3)cccc12 [Example B-1072]
inhibition at 1 µM [2, 4]: 28%

P38 alpha kinase IC50, uM or % inhib @ conc. (uM): % inhib ([1]; @ 10.0 uM): 37.0% @
U937 Cell IC50, uM or % inhib @ conc. (uM): % inhib [2, 5]: 22.0% @
Compound: COCCN(Cc1cccc(OC)c1)C(=O)Cn1nc(-c2ccc(F)cc2)c(-c2ccncc2)c1C [Example B-2394]

IC50 [1, 3]: 480 nM
Compound: O=S(=O)(NCCc1[nH]nc(-c2ccc(F)cc2)c1-c1ccncc1)c1ccc2ccccc2c1 [Example B-1068]
inhibition at 1 µM [2, 4]: 24%

P38 alpha kinase IC50, uM or % inhib @ conc. (uM): % inhib ([1]; @ 10.0 uM): 42.0% @
U937 Cell IC50, uM or % inhib @ conc. (uM): % inhib [2, 5]: 24.0% @
Compound: Cc1c(-c2ccncc2)c(-c2ccc(F)cc2)nn1CC(=O)N1CCCCC1CC1CCCN1C (mixture of isomers) [Example B-2388]

IC50 ([1]; in vitro P38-alpha kinase): 920 nM
Compound: O=C(c1ccccc1Cl)N1CCC(c2[nH]nc(-c3ccc(F)cc3)c2-c2ccncc2)CC1 [Example B-1397]
inhibition at 1 µM [2, 7]: 85%

P38 alpha kinase % inhib @ conc. (uM) ([1]; @ 1.0 uM): 78.0% @
Compound: O=C(NCCc1[nH]nc(-c2ccc(F)cc2)c1-c1ccncc1)NCc1ccccc1 [Example B-0939]
U937 Cell % inhib @ conc. (uM) [2, 5]: 14.0% @

IC50 [1, 3]: 340 nM
Compound: CC(NC(=O)c1ccccc1F)c1[nH]nc(-c2ccc(F)cc2)c1-c1ccncc1 (centres unmarked) [Example B-0699]
U937 Cell % inhib @ conc. (uM) [2, 9]: 31.0% @

IC50 [1, 3]: 440 nM
Compound: CC(C)c1cc(C(C)C)c(C(=O)NC(C)c2[nH]nc(-c3ccc(F)cc3)c2-c2ccncc2)c(C(C)C)c1 (centres unmarked) [Example B-0497]
inhibition at 1 µM ([2]; Homo sapiens, TNF production in human U937 cells stimulated with LPS, read-out: U937 Cell % inhib @ conc.): 31%

IC50 [1, 3]: 320 nM
Compound: CC(=O)OC(C)C(=O)NC(Cc1ccccc1)c1[nH]nc(-c2ccc(F)cc2)c1-c1ccncc1 (centres unmarked) [Example B-0841]
U937 Cell % inhib @ conc. (uM) [2, 5]: 36.0% @

IC50 [1, 3]: 4970 nM
IC50 [2, 8]: > 1 µM
Compound: Cc1ccc(C(=O)NC(Cc2ccccc2)c2[nH]nc(-c3ccc(F)cc3)c2-c2ccncc2)cc1 (centres unmarked) [Example B-0818]
